Measurements as given in US9765213B2, “Drug carriers comprising amphilphilic block copolymers” (BIOCOMPATIBLES UK LIMITED, priority 2002, dated 2017).
Where a name gives a salt, the structure may show the parent alone. Numbered stars: 1 amine (or outer) side, 2 acyl side, 3 side chain; on linkers, the order of the positions; unused ones are H or OH. Bridge positions count the residues as written; N and C are the ends. Square brackets hold non-standard residues; d marks the D form. Peptide text beside a SMILES is read from it. I, II: the chains in the order shown. Actinocin(9to1) = Cc1c2oc3c(C)ccc(C(=O)[*:1])c3nc-2c(C(=O)[*:2])c(N)c1=O; NMeV = CN[C@H](C(=O)O)C(C)C; Sar = CNCC(=O)O

Experiment: Dipyridamole loading by pH change
Format: physicochemical
Details: pH 2
Method: In another example of drug loading, a solution of the drug dipyridamole was used given the intensely coloured nature of the drug allows simple detection. At pH 2 this drug was dissolved to give a fluorescent green-yellow solution. By adjusting the pH to 9-10 the drug was seen to precipitate.

| solubility behaviour of the drug | SMILES |
| --- | --- |
| dissolved | OCCN(CCO)c1nc(N2CCCCC2)c2nc(N(CCO)CCO)nc(N3CCCCC3)c2n1 [Dipyramidole] |

Same assay, conditions: pH 9-10

| solubility behaviour of the drug | SMILES |
| --- | --- |
| precipitate | OCCN(CCO)c1nc(N2CCCCC2)c2nc(N(CCO)CCO)nc(N3CCCCC3)c2n1 [Dipyramidole] |

Experiment: Release of solubilised Orange OT dye from micelles by lowered pH (particle size)
Format: physicochemical
Details: pH 4.5, after release from MPC30-DEA60 micelles
From the text: The release of solubilised Orange OT dye from micelles, as a model for drug release, using lowered pH as the stimuli was examined.

| share of the particle population [%] | SMILES |
| --- | --- |
| 1 | Cc1ccccc1N=Nc1c(O)ccc2ccccc12 [Orange OT] |

Same assay, conditions: released from MPC30-DEA60 micelles, pH reduced to pH 4.5

| mean particle diameter of released dye aggregates [nm] | SMILES |
| --- | --- |
| 113 | Cc1ccccc1N=Nc1c(O)ccc2ccccc12 [Orange OT] |

Experiment: not given
Details: octanol/water; determined experimentally, literature; cited from earlier work

| SMILES | LogP (Exp) |
| --- | --- |
| COCc1c(C(C)C)nc(C(C)C)c(/C=C/[C@@H](O)C[C@@H](O)CC(=O)O)c1-c1ccc(F)cc1 [Cerivastatin] | 2.05 |
| COc1cc([C@@H]2c3cc4c(cc3[C@@H](O[C@@H]3O[C@@H]5CO[C@@H](C)O[C@H]5[C@H](O)[C@H]3O)[C@H]3COC(=O)[C@H]23)OCO4)cc(OC)c1O [Etoposide] | 0.99 |
| CC[C@H](C)C(=O)O[C@H]1C[C@@H](C)C=C2C=C[C@H](C)[C@H](CC[C@@H]3C[C@@H](O)CC(=O)O3)[C@H]21 [Lovastatin] | 1.7 |
| CC[C@H](C)C(=O)O[C@H]1C[C@H](O)C=C2C=C[C@H](C)[C@H](CC[C@@H](O)C[C@@H](O)CC(=O)O)[C@H]21 [Pravastatin] | −0.23 |
| CC[C@]1(O)C[C@@H]2CN(CCc3c([nH]c4ccccc34)[C@@](C(=O)OC)(c3cc4c(cc3OC)N(C)[C@H]3[C@@](O)(C(=O)OC)[C@H](OC(C)=O)[C@]5(CC)C=CCN6CC[C@]43[C@@H]65)C2)C1 [Vinblastine] | 1.68 |
| O=C1CCc2cc(OCCCCc3nnnn3C3CCCCC3)ccc2N1 [Cilostazol] | 2.3 |
| CC(C)n1c(/C=C/C(O)CC(O)CC(=O)O)c(-c2ccc(F)cc2)c2ccccc21 (centres unmarked) [Fluvastatin] | 1.67 |
| CC[C@]1(O)C[C@H]2CN(CCc3c([nH]c4ccccc34)[C@@](C(=O)OC)(c3cc4c(cc3OC)N(C=O)[C@H]3[C@@](O)(C(=O)OC)[C@H](OC(C)=O)[C@]5(CC)C=CCN6CC[C@]43[C@@H]65)C2)C1 [Vincristine Sulfate] | 2.14 |
| C[C@]12CC[C@@H]3c4ccc(O)cc4CC[C@H]3[C@@H]1CC[C@@H]2O [Estradiol] | 4.3 |
| Cc1c2oc3c(C)ccc(C(=O)N[C@@H]4C(=O)N[C@H](C(C)C)C(=O)N5CCC[C@H]5C(=O)N(C)CC(=O)N(C)[C@@H](C(C)C)C(=O)O[C@@H]4C)c3nc-2c(C(=O)N[C@@H]2C(=O)N[C@H](C(C)C)C(=O)N3CCC[C@H]3C(=O)N(C)CC(=O)N(C)[C@@H](C(C)C)C(=O)O[C@@H]2C)c(N)c1=O [Actinomycin] (I: T[dV]P[Sar][NMeV] / II: T[dV]P[Sar][NMeV]; ester I:1-I:C, II:1-II:C; linker I:N-II:N via Actinocin(9to1)) | 0.997 |
| O=c1[nH]cc(F)c(=O)[nH]1 [Fluorouracil] | −1 |
| Nc1nc2nc[nH]c2c(=S)[nH]1 [6-Thioguanine] | −0.28 |
| CC(=O)O[C@H]1C(=O)[C@@]2(C)[C@H]([C@H](OC(=O)c3ccccc3)[C@]3(O)C[C@H](OC(=O)[C@H](O)[C@@H](NC(=O)c4ccccc4)c4ccccc4)C(C)=C1C3(C)C)[C@]1(OC(C)=O)CO[C@@H]1C[C@@H]2O [Taxol] | 3.98 |
